# Measured values taken from patent US8809366B2, “Thienopyridine ester derivative containing cyano group, preparation method, use and composition thereof” (Tianjin Institute of Pharmaceutical Research, priority 2011, dated 2014).
# Legend:
# [1] = 1000 mg/kg intragastric once a day; from the third day of administration
# Procedure: Two Weeks of Toxicity Studies on Rats (Compared with Clopidogrel)
# 100 mg/ml suspension is prepared before use, and administrated intragastricly at 1 ml/100 g every morning.
# Experimental animals: SD rats weighing about 180 g, 7 female and 7 male in each group.
# The same amount of solvent is administrated intragastricly to the blank control group, and equal-dose (1000 mg/kg) of Clopidogrel is administrated intragastricly to the positive control group.
# [2] = system: ADP-induced platelet aggregation; assay: Inhibiting effect on rat platelet aggregation (ADP-induced, PRP taken 2 h after intragastric administration); type: in vivo, Wistar rats; settings: blood 2 h after administration, ADP final concentration 1.08 μM, X ± SD
# Procedure: Experiments of Inhibiting Effect on Rat Platelet Aggregation:
# ADP: produced by SIGMA Co.
# Wistar rats: SPF grade, male, provided by The Institute of Laboratory Animal Science, Chinese Academy of Medical Sciences, license No. SCXK (jing) 2005-0013.
# PAM-3 Dual Channel Platelet Aggregometer: produced by Jiangsu Danyang Radio Factory.
# Healthy male Wistar rats weighing 200-250 g were selected and randomly divided into groups. The experiments were carried out in three batches, and each batch was distributed into a normal control group and 6 compound groups, and totally two dose groups were tested in each batch. […] Intragastric administration with a dose volume of 10 ml/kg·bw was used. The normal control group was given the same amount of 0.5% CMC-Na. 2 h after administration, 40 mg/kg of pentobarbital sodium was intraperitoneally injected (1 ml/kg) for anesthesia, and blood was collected from the abdominal aorta. 3.8% sodium citrate was used for anticoagulation, and platelet-rich plasma (PRP) and platelet-poor plasma (PPP) were prepared respectively. Maximum percentage of ADP (final concentration: 1.08 μM) induced platelet aggregation was tested on a PAM-3 Dual Channel Platelet Aggregometer.
# [3] = rat, in vivo
# [4] = 15 mg/kg intragastric, n=10, control group 74.2 ± 20.8
# [5] = 30 mg/kg intragastric, n=6, control group 47.1 ± 14.2
Compound,hemorrhagic secretions around the rats' nasal [1],"Maximum percentage of aggregation [2, 4] [%]","Maximum percentage of aggregation [2, 5] [%]","conversion rate into active metabolites thiols, higher than Clopidogrel [3]",time to peak concentration of active metabolites [3] [min]
"COC(=O)[C@H](c1ccccc1Cl)N1CCc2sccc2C1 [Clopidogrel, reference compound]",hemorrhagic secretions around the rats' nasal can be observed,,,,
"CC(=O)Oc1cc2c(s1)CCN(Cc1ccccc1C#N)C2 [Compound I-1, (5-(2-cyanobenzyl)-4,5,6,7-tetrahydrothieno[3,2-c]pyridin-2-yl)acetate]",obviously slight in the compound I-1 group than in the Clopidogrel group,20.5 ± 25.5,8.4 ± 8.3,about 5 times,50 to 60
"CC(=O)Oc1cc2c(s1)CCN(Cc1cccc(C#N)c1)C2 [Compound I-2, (5-(3-cyanobenzyl)-4,5,6,7-tetrahydrothieno[3,2-c]pyridin-2-yl)acetate]",,29.8 ± 24.3,4.9 ± 28.4,about 5 times,50 to 60
CC(=O)Oc1cc2c(s1)CCN(Cc1ccc(C#N)cc1)C2 [Compound I-3],,22.7 ± 24.1,8.7 ± 17.8,about 5 times,50 to 60
